Our source for the melting point values is a melting point compilation (Tetko et al.; mined from patent text by program, amines drawn as free bases though some values may be those of a salt).

A value given as a limit tells only on which side of the number the result lay.

In the case of `CCCc1c2nc(C(=O)OCC)cc(C#N)c2cc2c(=O)cc(C(=O)OCC)oc12`, the melting point is 207 to 209 °C.
`CCOCC(=NNc1ccc(C(F)(F)F)cc1)C(=O)O` came in with a melting point of 96 to 99 °C.
As for `COc1ccc2[nH]c(=O)[nH]c2c1`, the melting point lay in the range of 249 to 251 °C.
The figure for `Cc1cc(C(Cl)=NO)ccc1Br` is 77 to 78 °C; for `NC(=O)c1cc(Cl)c(NC(=O)CCl)c(Cl)c1` it is 260 °C.
The figure for `Cc1nc2c(N)nc3ccccc3c2n1CCCCNS(=O)(=O)c1ccccc1` is 215 to 216 °C; for `OCC(O)(C(F)(F)F)C(F)(F)F` it is 47 °C.
`COc1cc2nc(N3CCN(C(=O)NC4CCCC4)CC3)nc(N)c2cc1OC` showed a melting point of 200 to 202 °C.
`CCCCCCCCC(SCCCCCC)C(=O)Nc1c(OC)cc(Cl)c2ncccc12` (stereo not drawn) showed a melting point of 110 to 111 °C.
The value for `CC(=O)c1ccc2sc3ccccc3c2c1` was 97 to 100 °C; that for `CC(=CC(=O)O)c1ccc([N+](=O)[O-])cc1` was 167 to 169 °C.
Consider `NC(=O)c1cc2ccccc2cc1NC(=S)NC(=O)c1ccccc1`, for which the melting point is 220 to 223 °C.
The value for `CC(=O)NCC1CC(c2ccc(N3CCS(=O)CC3)c(F)c2)=NO1` (stereo not drawn) was 204 to 205 °C; that for `COc1ccc(C2(C)C(=O)Nc3cc(Cl)cc(Cl)c3C2=O)cc1[N+](=O)[O-]` (stereo not drawn) was 255 to 256 °C.
On to `CCC(=Nc1ccc2c(c1)C(=O)c1ccc(N=C(CC)N3CCCCC3)cc1C2=O)N1CCCCC1`, for which the melting point lay within 183 to 185 °C.
The figure for `O=C(Nc1ccncc1)c1c(OCC2CC2)ccc2oc3ccccc3c12` is 243 to 244 °C; for `OC(c1ccc(Cl)cc1)c1cc2ccncc2[nH]1` (stereo not drawn) it is 176 to 180 °C.
Turning to `CCCCCCCC(=O)NCCCCO`, the melting point was in the range of 76 to 77 °C.
The value for `CC(C)NC(=O)c1nn(-c2ccc(Cl)cc2)c(=O)c2c(N)scc12` was 197 to 199 °C.
The value for `OCCCOc1cccc2sccc12` was 82 °C.
`CC(C)=CCCOc1c(-c2ccc(S(N)(=O)=O)cc2)cnn(-c2ccc(F)c(F)c2)c1=O` yielded a melting point of 70 to 73 °C.
The value for `CCc1cccc(CC(=O)O)c1OCCCc1cn(-c2ccc(Br)cn2)nc1C(CC)CC` was 123 °C; that for `CCCCCCCC(=O)OC1CC(=O)NC1=O` (stereo not drawn) was 60.5 to 61 °C; that for `OC1(F)OC(F)(F)C1(F)F` (stereo not drawn) was 90 to 91 °C.
The figure for `CC(=C1SC(=O)NC1=O)c1ccc(S(=O)(=O)CCc2ccccc2)cc1` is 201 to 202 °C; for `N#Cc1ccc(Oc2ccccc2N)cc1C#N` it is 118 °C; for `COc1ccc(OC2COc3ccc(O)cc3C2O)cc1` (stereo not drawn) it is 187 to 189 °C.
The figure for `CC1=NN(C(=O)NS(=O)(=O)N(C)S(=O)(=O)N(C)C)C(c2cccs2)C1` (stereo not drawn) is 112 to 113 °C; for `CN(OCc1nc2c(N)nc3ccccc3c2n1CC(C)(C)O)C(N)=O` it is 206 to 207 °C; for `COC1CN(c2ccc(N3C[C@H](CNC(C)=O)OC3=O)cc2F)C1` it is 160 to 162 °C.
Consider `Cn1nnc2ccc(C(c3ccc(Cl)cc3)n3cncn3)cc21` (stereo not drawn), for which the melting point lay in the range of 130 to 135 °C.
The compound `CCCC(C)C(=O)N1CC(NC(=O)Nc2cccc(C(=O)O)c2)C(=O)N(CC(=O)c2ccccc2C)c2cc(C)ccc21` (stereo not drawn) returned a melting point of 227 to 229 °C.
The figure for `O=c1[nH]c(=O)n(C2CC(Cl)C(CBr)O2)cc1C=CBr` (stereo not drawn) is 149 °C; for `C[C@@H](CSc1nc2ccccc2cc1-c1ccccc1)NC(=O)OC(C)(C)C` it is 86 to 87 °C.
For the compound `O=C(Nc1ccc2ccc(Cl)nc2n1)c1ccsc1`, the melting point is 254 °C.
The figure for `Cc1c(NC(=O)N2CC[C@H](O[Si](C)(C)C(C)(C)C)[C@H]2CO)ccc(C#N)c1Cl` is 174 to 176 °C; for `Cc1cc(C)cc(-c2cc3cnc(N)nc3nc2N)c1` it is 298 to 302 °C; for `CN1CCC(=Cc2cc(C(C)(C)C)c(O)c(C(C)(C)C)c2)C1=O` it is 185 °C.
The figure for `Nc1nc2c(c(=O)[nH]1)CCc1ccccc1-2` is more than 300 °C; for `N#CC(C#N)C(=O)c1ccc2ccccc2c1` it is 121 °C.
The figure for `Cc1nc(N)nc(N)c1-c1ccc(Cl)cc1Cl` is 222 °C; for `O=C(c1cncc(Br)c1)N1CCC(=C2c3ccc(Cl)cc3CCc3cccnc32)CC1` it is 87.5 to 96.4 °C.
As for `COc1cccc(N2CCC(NC(C)=O)CC2)n1`, the melting point is 125 to 127 °C.
On to `O=[N+]([O-])c1cc(Cl)c(N=C2NCCCN2)c(Cl)c1`, for which the melting point amounted to 265 °C.
In the case of `COC(=O)CCc1ncc2oc(C(=O)OC)c(O)c2c1C(=O)OC`, the melting point lay within 117 to 118 °C.
In turn, `CC(=O)Nc1nsc2ccc(NS(=O)(=O)c3cc(Cl)ccc3Cl)cc12` showed a melting point of 169 to 172 °C.
The value for `Nc1cccc(C=C2NC(=O)NC2=O)c1` was 280 to 284 °C.
The value for `Cn1cc(C2=C(c3c4n(c5ccccc35)CC(CCO)CC4)C(=O)NC2=O)c2ccccc21` (stereo not drawn) was 236 to 238 °C.
The value for `CC(C)(O)CC(=O)N[C@H]1CC[C@H](CCN2CCN(c3nccc4c3CCO4)CC2)CC1` was 208 °C; that for `COC(=O)/C(=C/c1ccc(OCCc2nc(-c3ccccc3)oc2C)c2ccsc12)OC` was 165 °C; that for `C=C(C)C(=O)Oc1ccc(CNS(C)(=O)=O)cc1` was 101 to 102 °C.
For `Cc1cc(-c2ccccc2)co1`, the melting point was in the range of 89 to 91 °C.
The value for `CCCN(CCC)C1CCc2c(ccc3c2C(=O)C(=O)N3)C1` (stereo not drawn) was 83 to 86 °C; that for `CCOC(=O)CNC(=O)c1ccc(O)cc1` was 205 to 209 °C; that for `Cc1cc(=O)n2cccc(OCc3ccccc3Br)c2n1` was 144 to 146 °C.
In turn, `CCN(CC)CC1CCCCN1CCNC(=O)N1c2cccnc2NC(=O)c2c1c(C)nn2C` (stereo not drawn) returned a melting point of 138 to 139 °C.
The figure for `CCCCCCCCCCCCSC(C)(C)C=NNC(=O)CCc1cc(C(C)(C)C)c(O)c(C(C)(C)C)c1` is 53 to 57 °C.
The value for `COC(=O)c1ccc2c(Br)n[nH]c2c1` was 186 to 189 °C.
The compound `C#CC1(O)CCc2c(O)c3c(c(O)c2C1)C(=O)c1ccccc1C3=O` (stereo not drawn) gave a melting point of 230 °C.
The figure for `O=C(Nc1nc(C(Cl)(Cl)Cl)ns1)c1ccccc1F` is 149 °C.
With `COC(=NS(=O)(=O)c1nc(-c2ccccc2C)ns1)C(C)C`, the melting point lay within 116 to 118 °C.
The compound `c1ccc(CN2CCN(Cc3nc4ccccc4[nH]3)CC2)cc1` had a melting point of 195 to 201 °C.
The value for `Cc1cccc(-c2n[nH]cc2-c2ccc(F)c(-c3cn4c(n3)S(=O)(=O)CC4)c2)n1` was 134 to 138 °C; that for `CCCCCN1C(=O)C2(COc3cc4c(cc32)OCO4)c2ccccc21` (stereo not drawn) was 85 to 87 °C; that for `CC(=C1SCCCS1)c1ccc(Oc2ccc(O)cc2)cc1` was 84.5 °C.
The figure for `COc1c(CC(C)(C)C(=O)O)n(Cc2ccc(Cl)cc2)c2ccc(O)cc12` is 137 °C.
In turn, `CC1ON=C(c2ccc(F)cc2)C1CN(O)C(N)=O` (stereo not drawn) had a melting point of 149 to 151 °C.
As to `CC(C)(C)c1cc(CC(S)C(=O)O)cc(C(C)(C)C)c1O` (stereo not drawn), the melting point was in the range of 137 to 140 °C.
The figure for `CC(=O)OCc1ccc2oc(=O)c(C(=O)Oc3cc(Cl)cc(Cl)c3)cc2c1` is 146 to 150 °C; for `COc1cc(C(=O)N(C(C)C)C(C)C)ccc1OCCCCOc1ccc(C(N)=NO)cc1` it is 63 to 65 °C; for `Cc1ccc(C(=O)CNC(=O)c2ccc(C(F)(F)F)cc2)s1` it is 182 to 183 °C.
Regarding `COc1ccc(-c2nc(CCl)co2)s1`, the melting point was 64 to 65 °C.
The figure for `C=C(C)c1ccccc1C(=O)O` is 71.6 to 72.5 °C.
The figure for `CC(C)(C)N(O)CP(=O)(OCc1ccccc1)OCc1ccccc1` is 106 to 107 °C; for `Cc1ccccc1-n1c(C)nc2c(c1=O)N(Cc1ccccc1)NN2` it is 178 to 180 °C; for `COc1cc(-c2ccc(NN)nn2)ccc1OC(F)F` it is 154 °C.
The value for `c1cc(Cn2ccnc2)c2nccnc2c1` was 121 °C; that for `CCOC(=O)c1ccc2[nH]cc(C3=CCN(C)CC3)c2c1` was 249 °C; that for `CCc1c(C(=O)O)ccc(OCc2ccccc2)c1Cl` was 208 to 210 °C.
For the compound `CCOCc1nc2c(N)nc3cc(OCc4ccccc4)ccc3c2n1CC(C)C`, the melting point was 201 to 203 °C.
Consider `CC(=O)N[C@@H]1[C@@H](CC2CO2)CC(C(=O)O)=C[C@H]1OC(C)C` (stereo partly drawn), for which the melting point was 156 to 157 °C.
The figure for `COc1ccc(C=C(NC(C)=O)C(=O)O)cc1OC` is 212 to 214 °C; for `COc1ccccc1N1CCN(CCn2c(=O)[nH]c3ccsc3c2=O)CC1` it is 222 to 223 °C.
`CS(=O)c1n[nH]c2ccc(C(F)(F)F)cc12` (stereo not drawn) registered a melting point of 168 to 170 °C.
The value for `CCCCCCCCCCOc1ccc(C(=O)O[C@@H]2CC[C@H](NC(=O)[C@H](OC)[C@H](O)[C@@H](O)[C@H](O)/C=C/C(C)(C)C)C(=O)NC2)cc1` was 70 to 74 °C; that for `COc1ccc(-c2cc(F)c3c(c2)CC(CN)O3)cc1` (stereo not drawn) was more than 250 °C; that for `COC(=O)c1cc(OCc2cn(-c3ccc(C(F)(F)F)cn3)nc2C)nn1C` was 130 to 131 °C.
The value for `CCCCN(CCCC12CC3CC(CC(C3)C1)C2)C(=O)NCCCc1ccncc1` was 79.8 to 80.4 °C; that for `O=C(C#Cc1ccc(C(F)(F)F)cc1Cl)Nc1ccc2oc(CN3CCCC3)nc2c1` was 218 to 223 °C.
The value for `COc1ccc(/C=C/c2ccc3cc(C(=O)O)ccc3n2)cc1` was 274 to 277 °C; that for `C(=Cc1cc(OCc2ccccc2)cc(OCc2ccccc2)c1)c1ccc(OCc2ccccc2)cc1` was 156 to 158 °C.
`O=C(Nc1ccc(F)cc1)NC1CCN(S(=O)(=O)c2ccc(Cl)cc2)CC1` returned a melting point of 160 to 162 °C.
The value for `C=CCN1CC(C)N(C(c2cccc(O)c2)c2cccc(C#N)c2)CC1C` (stereo not drawn) was 169 to 171 °C.

What is called melting point is the temperature, or range, at which the solid turns liquid.
